The NIST ThermoML archive (doi:10.1016/j.tca.2008.12.007)

Details: 101.33 kPa, Liquid, Vibrating tube method

C1CCCNCC1 [azacycloheptane]
Details | mass density [kg/m3]
273.16 K | 898.81
273.66 K | 898.36
274.16 K | 897.92
274.66 K | 897.48
275.16 K | 897.04
275.66 K | 896.6
276.16 K | 896.16
276.66 K | 895.72
277.16 K | 895.28
277.66 K | 894.84
278.16 K | 894.4
278.66 K | 893.96
279.16 K | 893.51
279.66 K | 893.07
280.16 K | 892.63
280.66 K | 892.19
281.16 K | 891.75
281.66 K | 891.31
282.16 K | 890.87
282.66 K | 890.42
283.16 K | 889.98
283.66 K | 889.54
284.16 K | 889.1
284.66 K | 888.66
285.15 K | 888.22
285.66 K | 887.77
286.16 K | 887.33
286.66 K | 886.89
287.16 K | 886.45
287.66 K | 886
288.16 K | 885.56
288.66 K | 885.12
289.16 K | 884.68
289.66 K | 884.23
290.16 K | 883.79
290.66 K | 883.35
291.15 K | 882.91
291.65 K | 882.47
292.16 K | 882.03
292.65 K | 881.58
293.15 K | 881.15
293.65 K | 880.71
294.15 K | 880.26
294.65 K | 879.82
295.15 K | 879.38
295.65 K | 878.94
319.15 K | 858.06
319.65 K | 857.61
320.15 K | 857.17
320.65 K | 856.72
321.15 K | 856.28
321.65 K | 855.83
322.15 K | 855.39
322.65 K | 854.94
323.15 K | 854.49
323.65 K | 854.05
324.15 K | 853.6
324.65 K | 853.15
325.15 K | 852.71
325.66 K | 852.26
326.16 K | 851.81
326.66 K | 851.37
327.15 K | 850.92
327.66 K | 850.47
328.16 K | 850.03
328.66 K | 849.58
329.16 K | 849.13
329.66 K | 848.69
330.16 K | 848.24
330.65 K | 847.79
331.16 K | 847.35
331.66 K | 846.9
332.15 K | 846.45
332.66 K | 846
333.16 K | 845.55
333.65 K | 845.11
334.16 K | 844.66
334.65 K | 844.21
335.16 K | 843.76
335.65 K | 843.31
336.16 K | 842.86
336.66 K | 842.42
337.16 K | 841.96
337.66 K | 841.52
338.16 K | 841.07
338.66 K | 840.62
339.16 K | 840.17
339.66 K | 839.72
340.16 K | 839.27
340.66 K | 838.82
341.16 K | 838.37
341.65 K | 837.92
